The values that follow come from ChEMBL document CHEMBL4828765, “Design and Development of a Chemical Probe for Pseudokinase Ca2+/calmodulin-Dependent Ser/Thr Kinase” (J Med Chem, 2021).

Assay [1] addresses T1, Tyrosine-protein kinase receptor TYRO3 (Homo sapiens, UniProt Q06418).
T1 sequence (Q06418 whole entry): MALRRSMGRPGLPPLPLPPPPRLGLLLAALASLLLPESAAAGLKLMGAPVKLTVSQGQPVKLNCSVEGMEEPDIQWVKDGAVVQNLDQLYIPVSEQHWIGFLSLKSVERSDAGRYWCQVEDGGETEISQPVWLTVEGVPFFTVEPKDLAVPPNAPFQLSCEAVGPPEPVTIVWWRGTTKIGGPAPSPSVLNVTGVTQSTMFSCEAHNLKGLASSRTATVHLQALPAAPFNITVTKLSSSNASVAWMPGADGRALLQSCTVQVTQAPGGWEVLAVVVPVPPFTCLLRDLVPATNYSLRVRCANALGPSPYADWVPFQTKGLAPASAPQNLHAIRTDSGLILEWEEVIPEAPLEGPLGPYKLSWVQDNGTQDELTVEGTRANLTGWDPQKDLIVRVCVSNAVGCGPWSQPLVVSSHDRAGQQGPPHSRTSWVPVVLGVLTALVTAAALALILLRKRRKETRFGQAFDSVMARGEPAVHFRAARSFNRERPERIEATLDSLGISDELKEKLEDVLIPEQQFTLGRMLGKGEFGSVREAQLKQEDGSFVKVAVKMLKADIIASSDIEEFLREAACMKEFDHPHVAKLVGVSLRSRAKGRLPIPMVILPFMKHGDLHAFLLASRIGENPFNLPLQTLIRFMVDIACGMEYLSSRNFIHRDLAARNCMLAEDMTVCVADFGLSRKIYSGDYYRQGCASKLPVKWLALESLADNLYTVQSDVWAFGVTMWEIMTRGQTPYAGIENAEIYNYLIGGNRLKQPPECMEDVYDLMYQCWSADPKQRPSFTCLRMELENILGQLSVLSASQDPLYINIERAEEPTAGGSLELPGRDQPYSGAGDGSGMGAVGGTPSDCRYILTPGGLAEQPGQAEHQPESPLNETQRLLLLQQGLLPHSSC
Description: Inhibition of tracer K5 binding to NanoLuc-fused TYRO3 (unknown origin) expressed in HEK293T cells measured after 2 hrs by NanoBRET assay. Type of assay: cell-based.

The target in assay [2] is Tyrosine-protein kinase ABL1 (Homo sapiens, UniProt P00519).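 Also: thermal shift of non-phosphorylated ABL1 protein measured by differential scanning fluorimetry with SYPRO Orange dye.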
Description: Binding affinity to non-phosphorylated ABL1 (unknown origin) assessed as change in melting temperature by SYPRO orange dye based DSF assay
Assay [3] has as its target Casein kinase I isoform epsilon (Homo sapiens, UniProt P49674). Description: Binding affinity to CSNK1E (unknown origin) assessed as change in melting temperature by SYPRO orange dye based DSF assay. On the technique in general: Differential scanning fluorimetry follows unfolding on heating by fluorescence.
The species entered for a further assay is Homo sapiens. Briefly: Binding affinity to MERTK-AXL mutant (unknown origin) expressed in Escherichia coli Rosetta cells assessed as change in melting temperature by SYPRO orange dye based DSF assay.
For assay [4], the target named is T2, Peripheral plasma membrane protein CASK (Homo sapiens) (UniProt O14936).
T2 sequence (whole entry): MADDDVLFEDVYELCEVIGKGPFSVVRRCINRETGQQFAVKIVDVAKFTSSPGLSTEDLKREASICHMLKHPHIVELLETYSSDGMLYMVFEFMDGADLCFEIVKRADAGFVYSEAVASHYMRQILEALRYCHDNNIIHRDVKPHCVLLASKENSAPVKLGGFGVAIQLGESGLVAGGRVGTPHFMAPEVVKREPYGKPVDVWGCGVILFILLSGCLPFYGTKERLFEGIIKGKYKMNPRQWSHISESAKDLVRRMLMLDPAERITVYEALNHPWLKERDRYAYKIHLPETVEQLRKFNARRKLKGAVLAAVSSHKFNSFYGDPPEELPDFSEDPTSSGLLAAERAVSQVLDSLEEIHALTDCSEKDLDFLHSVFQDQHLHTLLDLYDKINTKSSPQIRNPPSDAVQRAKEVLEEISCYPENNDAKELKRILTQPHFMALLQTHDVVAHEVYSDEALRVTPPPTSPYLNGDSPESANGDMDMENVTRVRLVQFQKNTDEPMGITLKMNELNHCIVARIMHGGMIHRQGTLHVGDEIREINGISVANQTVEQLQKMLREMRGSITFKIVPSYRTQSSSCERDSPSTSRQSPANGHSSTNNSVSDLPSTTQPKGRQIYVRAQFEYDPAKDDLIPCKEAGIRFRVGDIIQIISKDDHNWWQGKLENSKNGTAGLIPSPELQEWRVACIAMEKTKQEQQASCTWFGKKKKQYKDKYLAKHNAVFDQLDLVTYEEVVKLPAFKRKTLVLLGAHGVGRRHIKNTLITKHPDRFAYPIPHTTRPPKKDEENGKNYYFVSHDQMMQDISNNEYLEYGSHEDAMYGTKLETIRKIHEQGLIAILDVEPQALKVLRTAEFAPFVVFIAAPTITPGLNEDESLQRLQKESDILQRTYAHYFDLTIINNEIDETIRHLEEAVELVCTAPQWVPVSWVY
Description: Binding affinity to recombinant N-terminal His-tagged CASK (1 to 337 residues) (unknown origin) expressed in Escherichia coli assessed as change in melting temperature by SYPRO orange dye based DSF assay

In assay [5] the target is T3, Tyrosine-protein kinase Mer (Homo sapiens) (UniProt Q12866).
T3 sequence (whole entry): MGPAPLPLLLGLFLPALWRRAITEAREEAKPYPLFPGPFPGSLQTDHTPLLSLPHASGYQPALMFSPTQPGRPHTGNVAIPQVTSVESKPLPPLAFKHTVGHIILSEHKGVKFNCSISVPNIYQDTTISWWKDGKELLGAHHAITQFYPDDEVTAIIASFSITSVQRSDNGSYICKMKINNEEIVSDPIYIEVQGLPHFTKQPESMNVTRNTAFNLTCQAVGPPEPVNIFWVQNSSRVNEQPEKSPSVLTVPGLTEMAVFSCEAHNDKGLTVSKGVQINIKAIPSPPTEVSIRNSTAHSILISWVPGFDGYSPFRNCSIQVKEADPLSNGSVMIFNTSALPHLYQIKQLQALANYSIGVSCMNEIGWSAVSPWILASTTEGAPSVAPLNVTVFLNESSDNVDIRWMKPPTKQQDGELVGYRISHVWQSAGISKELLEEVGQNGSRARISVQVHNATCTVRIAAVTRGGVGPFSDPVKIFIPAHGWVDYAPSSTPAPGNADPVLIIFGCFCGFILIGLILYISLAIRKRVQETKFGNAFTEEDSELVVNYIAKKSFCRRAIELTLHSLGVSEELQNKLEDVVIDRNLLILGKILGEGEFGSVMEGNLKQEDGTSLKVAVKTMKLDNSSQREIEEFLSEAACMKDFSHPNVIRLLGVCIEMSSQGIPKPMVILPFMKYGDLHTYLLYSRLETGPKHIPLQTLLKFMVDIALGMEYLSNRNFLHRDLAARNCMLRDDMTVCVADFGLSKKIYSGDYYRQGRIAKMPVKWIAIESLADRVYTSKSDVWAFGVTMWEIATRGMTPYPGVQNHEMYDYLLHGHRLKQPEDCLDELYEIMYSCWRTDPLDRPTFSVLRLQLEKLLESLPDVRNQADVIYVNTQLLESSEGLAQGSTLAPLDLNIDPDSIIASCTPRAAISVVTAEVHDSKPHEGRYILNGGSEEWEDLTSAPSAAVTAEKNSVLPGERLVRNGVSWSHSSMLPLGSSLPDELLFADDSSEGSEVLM
Briefly: Binding affinity to MERTK (571 to 864 residue) (unknown origin) expressed in Escherichia coli Rosetta cells assessed as change in melting temperature by SYPRO orange dye based DSF assay.

The target of assay [6] is T4, Tyrosine-protein kinase Mer (Homo sapiens, UniProt Q12866).
T4 sequence (Q12866 whole entry): T3 sequence (whole entry)
Briefly: Inhibition of tracer K5 binding to NanoLuc-fused MERTK (unknown origin) expressed in HEK293T cells measured after 2 hrs by NanoBRET assay. Type of assay: cell-based. In general terms: BRET reads energy transfer from a luciferase to a nearby fluorophore.

Molecules are shown by their SMILES.

Tyrosine-protein kinase ABL1, sequence (P00519 whole entry, canonical isoform): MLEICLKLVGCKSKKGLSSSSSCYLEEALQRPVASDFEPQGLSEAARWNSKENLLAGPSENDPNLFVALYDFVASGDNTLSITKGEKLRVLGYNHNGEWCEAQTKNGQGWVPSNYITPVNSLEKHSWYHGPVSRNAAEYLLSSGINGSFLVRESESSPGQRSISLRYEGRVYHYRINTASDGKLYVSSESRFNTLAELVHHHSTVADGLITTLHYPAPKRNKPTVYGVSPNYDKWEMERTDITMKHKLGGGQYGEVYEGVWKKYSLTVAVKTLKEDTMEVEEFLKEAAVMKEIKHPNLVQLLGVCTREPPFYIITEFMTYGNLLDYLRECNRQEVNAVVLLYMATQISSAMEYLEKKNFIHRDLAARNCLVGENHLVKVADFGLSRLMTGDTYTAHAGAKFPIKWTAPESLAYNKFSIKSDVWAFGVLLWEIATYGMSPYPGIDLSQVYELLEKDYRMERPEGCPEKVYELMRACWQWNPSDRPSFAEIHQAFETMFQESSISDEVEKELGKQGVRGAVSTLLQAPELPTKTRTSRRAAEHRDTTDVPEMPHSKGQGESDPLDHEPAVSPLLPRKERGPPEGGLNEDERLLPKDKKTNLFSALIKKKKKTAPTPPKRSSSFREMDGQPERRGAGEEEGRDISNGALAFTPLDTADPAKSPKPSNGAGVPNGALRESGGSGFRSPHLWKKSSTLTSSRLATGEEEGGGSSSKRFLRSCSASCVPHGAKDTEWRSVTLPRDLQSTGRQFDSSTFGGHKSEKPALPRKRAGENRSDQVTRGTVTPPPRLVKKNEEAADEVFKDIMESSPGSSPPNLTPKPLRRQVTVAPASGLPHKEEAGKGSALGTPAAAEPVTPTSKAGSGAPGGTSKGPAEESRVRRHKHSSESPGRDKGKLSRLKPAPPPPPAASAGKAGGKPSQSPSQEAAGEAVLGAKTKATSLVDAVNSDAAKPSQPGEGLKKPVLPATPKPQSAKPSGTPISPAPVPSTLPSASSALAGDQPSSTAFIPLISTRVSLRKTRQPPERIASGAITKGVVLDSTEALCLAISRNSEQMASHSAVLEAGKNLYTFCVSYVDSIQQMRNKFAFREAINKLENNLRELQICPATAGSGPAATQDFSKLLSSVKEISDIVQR
Casein kinase I isoform epsilon, sequence (P49674 whole entry, looked up, canonical isoform): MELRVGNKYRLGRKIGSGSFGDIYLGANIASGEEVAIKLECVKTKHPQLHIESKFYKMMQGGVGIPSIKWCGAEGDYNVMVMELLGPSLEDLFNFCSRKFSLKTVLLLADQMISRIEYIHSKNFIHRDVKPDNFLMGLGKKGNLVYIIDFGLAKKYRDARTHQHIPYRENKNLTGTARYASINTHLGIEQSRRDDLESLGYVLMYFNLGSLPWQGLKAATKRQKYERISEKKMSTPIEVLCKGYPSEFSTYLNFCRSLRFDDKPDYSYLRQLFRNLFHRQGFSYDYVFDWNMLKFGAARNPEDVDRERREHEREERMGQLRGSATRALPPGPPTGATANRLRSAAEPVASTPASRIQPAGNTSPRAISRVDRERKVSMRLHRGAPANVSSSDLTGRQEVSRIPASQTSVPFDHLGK

The compound `CCN(Cc1ccccc1)c1ncc(C(=O)NCCCN2CCCC2=O)c(NC2CCCC2)n1` showed an IC50 in assay [1] above 10 µM.

`O=C(NCCCN1CCCC1=O)c1cnc(NCc2cc(Cl)ccc2Cl)nc1NC1CCCCC1`: the deltaTm is 7.7 K in assay [2]; 5 K in assay [3]; 0.1 K in the assay filed under Homo sapiens; 5.7 K in assay [4]; -0.2 K in assay [5].

In the case of `O=C(NCCCN1CCCC1=O)c1cnc(NCc2ccc(Br)cc2)nc1NC1CCCC1`, the deltaTm in assay [2] is 6.8 K; in assay [3], 2.2 K; in the assay listed under Homo sapiens it was 0 K; in assay [4], 1.2 K; in assay [5], -0.1 K.

Turning to `O=C(NCCCN1CCCC1=O)c1cnc(NCc2cc(Cl)ccc2Cl)nc1NC1CC1`, the deltaTm is 4.9 K in assay [2]; 4 K in assay [3]; -0.2 K in the assay listed under Homo sapiens; 1.4 K in assay [4]; -0.4 K in assay [5].

`O=C(NCCCN1CCCC1=O)c1cnc(NCc2cc(Cl)ccc2Cl)nc1NC1CCCC1`: the deltaTm is 6 K in assay [2], 4.8 K in assay [3], -0.2 K in the assay filed under Homo sapiens and -0.7 K in assay [5].

In the case of `O=C(NCCCN1CCCC1=O)c1cnc(NCc2cc(F)ccc2F)nc1NC1CCCC1`, the deltaTm was 6.1 K in assay [2], 5.9 K in assay [3], 0.3 K in the assay filed under Homo sapiens and 0.6 K in assay [5]. Further, in assay [6], the concentration for half-maximal inhibition (IC50) is 4.48 µM.

For the compound `O=C(NCCCN1CCCC1=O)c1cnc(NCc2cccc(Br)c2)nc1NC1CCCC1`, the deltaTm in assay [2] was found to be 6.9 K; in assay [3] it was 6.5 K; in the assay listed under Homo sapiens it was 0.3 K; in assay [4] it was 3.8 K; in assay [5], 0.6 K.

Take `Cc1ccc(CNc2ncc(C(=O)NCCCN3CCOC3=O)c(NC3CCCC3)n2)c(Br)c1`: the deltaTm was 5.8 K in assay [2]; 0.1 K in assay [3]; -0.1 K in the assay listed under Homo sapiens; 6.1 K in assay [4]; -0.2 K in assay [5].

For `O=C(NCCCN1CCCC1=O)c1cnc(NCc2ccccc2Cl)nc1NC1CCCC1`, the deltaTm was 5.9 K in assay [2]; 4.8 K in assay [3]; -0.2 K in the assay filed under Homo sapiens; 3.3 K in assay [4]; -0.1 K in assay [5].

As for `COc1ccc(OC)c(CNc2ncc(C(=O)NCCCN3CCCC3=O)c(NC3CCCC3)n2)c1`, the deltaTm was 0.7 K in assay [2]; 0.4 K in assay [3]; -0.2 K in the assay filed under Homo sapiens; 0.8 K in assay [4]; -0.5 K in assay [5].

`O=C(NCCCN1CCOC1=O)c1cnc(NCc2cc(Br)ccc2Br)nc1NC1CCCC1`: the deltaTm in assay [2] was 6 K; in assay [3], 3.6 K; in the assay listed under Homo sapiens, 0.2 K; in assay [4], 5.1 K; in assay [5], -0.6 K.

Turning to `CN[C@@H]1C[C@H]2O[C@@](C)([C@@H]1OC)n1c3ccccc3c3c4c(c5c6ccccc6n2c5c31)C(=O)NC4`, the deltaTm in assay [3] was 2.3 K; in assay [5], 4.8 K.

Consider `O=C(NCCCN1CCCC1=O)c1cnc(NCc2cc(Br)ccc2Br)nc1NC1CCCC1`, for which the deltaTm in assay [2] was 6.3 K; in assay [3], 4.4 K; in the assay filed under Homo sapiens, 0.2 K; in assay [5] it was -0.7 K.

`O=C(NCCCN1CCCC1=O)c1cnc(NCc2ccccc2)nc1NC1CCCC1`: the deltaTm was 4.5 K in assay [2]; 4.3 K in assay [3]; 0.4 K in the assay listed under Homo sapiens; 0.8 K in assay [4]; 0.5 K in assay [5].

On to `O=C(NCCCN1CCCC1=O)c1cnc(NCc2cc(Cl)ccc2Cl)nc1Nc1ccccc1`, for which the deltaTm in assay [2] was 2.9 K; in assay [3], 3.6 K; in the assay listed under Homo sapiens it was -0.3 K; in assay [4] it was 1.4 K; in assay [5] it was -0.7 K.

For `Cc1ccc(CNc2ncc(C(=O)NCCCN3CCOC3=O)c(NC3CCCCC3)n2)c(Br)c1`, the deltaTm is 6.2 K in assay [2]; 1.5 K in assay [3]; -0.1 K in the assay filed under Homo sapiens; 6 K in assay [4]; 0.7 K in assay [5].

As to `O=C(NCCCN1CCCC1=O)c1cnc(NCc2ccccc2Br)nc1NC1CCCC1`, the deltaTm in assay [2] is 7 K; in assay [3] it was 4.4 K; in the assay listed under Homo sapiens, -0.1 K; in assay [4], 4.8 K; in assay [5], -0.5 K.

As usually defined, the IC50 is the concentration that gives 50% inhibition. A higher IC50 goes with weaker potency.
